According to US20260022142A1, “MACROCYCLIC IMMUNOMODULATORS” (Bristol-Myers Squibb Company, priority 2022, published 2026):
Numbered stars: 1 amine (or outer) side, 2 acyl side, 3 side chain; on linkers, the order of the positions; unused ones are H or OH. Bridge positions count the residues as written; N and C are the ends. Square brackets hold non-standard residues; d marks the D form. Peptide text beside a SMILES is read from it. * marks the point of attachment. Bip = N[C@@H](Cc1ccc(-c2ccccc2)cc1)C(=O)O; Phe(3-Me) = Cc1cccc(C[C@H](N)C(=O)O)c1; γGlu = O=C(O)[C@H](CCC(=O)[*:2])N[*:1]; βAsp = O=C(O)[C@H](CC(=O)[*:2])N[*:1]; Cha = N[C@@H](CC1CCCCC1)C(=O)O; Cit = NC(=O)NCCC[C@H](N)C(=O)O; Carboxymethyl = O=C(O)C*; Orn = NCCC[C@H](N)C(=O)O; Aun = NCCCCCCCCCCC(=O)O; Dab = NCC[C@H](N)C(=O)O; Dap = NC[C@H](N)C(=O)O; AEEA = NCCOCCOCC(=O)O

Target: T1, PD-1/PD-L1 interaction (PE-labeled human PD-L1-Ig binding to Jurkat cell line over-expressing human PD-1) (Homo sapiens, UniProt Q15116)
T1 construct: expressed in transfected cells; host or cells: Jurkat
T1 sequence (Q15116 25-288): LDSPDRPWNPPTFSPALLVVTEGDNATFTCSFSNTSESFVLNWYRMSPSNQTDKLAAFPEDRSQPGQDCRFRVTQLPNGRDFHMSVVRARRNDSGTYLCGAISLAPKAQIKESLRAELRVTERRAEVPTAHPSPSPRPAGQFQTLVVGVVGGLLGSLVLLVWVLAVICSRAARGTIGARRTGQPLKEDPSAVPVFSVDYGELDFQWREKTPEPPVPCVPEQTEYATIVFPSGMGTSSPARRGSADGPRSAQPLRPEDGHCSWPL
Assay: Jurkat-PD-1 Cell Binding High-Content Screening Assay (CBA)
Assay type: cell-based
Settings: Jurkat cell line over-expressing human PD-1; PE-labeled PD-L1-Ig 20 nM final; read-out: Jurkat hPD1-PDL1 IC50
Procedure: Example 2: Jurkat-PD-1 Cell Binding High-Content Screening Assay (CBA)
Phycoerythrin (PE) was covalently linked to the Ig epitope tag of human PD-L1-Ig and fluorescently-labeled PD-L1-Ig was used for binding studies with a Jurkat cell line over-expressing human PD-1 (Jurkat-PD-1). Briefly, 8×10^3 Jurkat-hPD-1 cells were seeded into 384 well plates in 20 μl of DMEM supplemented with 10% fetal calf serum. 100 nl of compound was added to cells followed by incubation at 37° C. for 2 h. Then, 5 μl of PE-labeled PD-L1-Ig (20 nM final), diluted in DMEM supplemented with 10% fetal calf serum. After 1 hour incubation, cells were fixed with 4% paraformaldehyde in dPBS containing 10 μg/ml Hoechst 33342 and then washed 3× in 100 μl dPBS. Data was collected and processed using a Cell Insight NXT High Content Imager and associated software.

Row | Structure (SMILES) | IC50 [nM]
1 | Cc1cccc(C[C@@H]2NC(=O)[C@H](CC(=O)O)NC(=O)[C@H](Cc3ccc(OCC(=O)O)cc3)NC(=O)[C@H](CN)NC(=O)CSC[C@@H](C(=O)N[C@@H](CCC(=O)NCCCCCCCCCCC(=O)O)C(=O)O)NC(=O)[C@H]([C@@H](C)O)NC(=O)[C@H](C(C)C)NC(=O)[C@H](CC3CCCCC3)NC(=O)[C@H](CCN)NC(=O)[C@@H](CC(C)C)NC(=O)[C@H](CCCN)NC(=O)[C@H](CCCNC(N)=O)NC(=O)[C@H](Cc3ccc(-c4ccccc4)cc3)NC(=O)[C@H](C(C)C)NC2=O)c1 [Compound 1024] ({CH2CO}-[Dap]Y(Carboxymethyl)D[Phe(3-Me)]V[Bip][Cit][Orn][dL][Dab][Cha]VTC[γGlu][Aun]-OH; thioether N-14) | 6.6
2 | Cc1cccc(C[C@@H]2NC(=O)[C@H](CC(=O)O)NC(=O)[C@H](Cc3ccc(OCC(=O)O)cc3)NC(=O)[C@H](CN)NC(=O)CSC[C@@H](C(=O)N[C@@H](CC(=O)NCCCCCCCCCCC(=O)O)C(=O)O)NC(=O)[C@H]([C@@H](C)O)NC(=O)[C@H](C(C)C)NC(=O)[C@H](CC3CCCCC3)NC(=O)[C@H](CCN)NC(=O)[C@@H](CC(C)C)NC(=O)[C@H](CCCN)NC(=O)[C@H](CCCNC(N)=O)NC(=O)[C@H](Cc3ccc(-c4ccccc4)cc3)NC(=O)[C@H](C(C)C)NC2=O)c1 [Compound 1025] ({CH2CO}-[Dap]Y(Carboxymethyl)D[Phe(3-Me)]V[Bip][Cit][Orn][dL][Dab][Cha]VTC[βAsp][Aun]-OH; thioether N-14) | 10.8
3 | Cc1cccc(C[C@@H]2NC(=O)[C@H](CC(=O)O)NC(=O)[C@H](Cc3ccc(OCC(=O)O)cc3)NC(=O)[C@H](CN)NC(=O)CSC[C@@H](C(=O)N[C@@H](CC(=O)O)C(=O)NCCCCCCCCCCC(=O)O)NC(=O)[C@H]([C@@H](C)O)NC(=O)[C@H](C(C)C)NC(=O)[C@H](CC3CCCCC3)NC(=O)[C@H](CCN)NC(=O)[C@@H](CC(C)C)NC(=O)[C@H](CCCN)NC(=O)[C@H](CCCNC(N)=O)NC(=O)[C@H](Cc3ccc(-c4ccccc4)cc3)NC(=O)[C@H](C(C)C)NC2=O)c1 [Compound 1026] ({CH2CO}-[Dap]Y(Carboxymethyl)D[Phe(3-Me)]V[Bip][Cit][Orn][dL][Dab][Cha]VTCD[Aun]-OH; thioether N-14) | 8.7
4 | Cc1cccc(C[C@@H]2NC(=O)[C@H](CC(=O)O)NC(=O)[C@H](Cc3ccc(OCC(=O)O)cc3)NC(=O)[C@H](CN)NC(=O)CSC[C@@H](C(=O)N[C@@H](CCC(=O)O)C(=O)NCCCCCCCCCCC(=O)O)NC(=O)[C@H]([C@@H](C)O)NC(=O)[C@H](C(C)C)NC(=O)[C@H](CC3CCCCC3)NC(=O)[C@H](CCN)NC(=O)[C@@H](CC(C)C)NC(=O)[C@H](CCCN)NC(=O)[C@H](CCCNC(N)=O)NC(=O)[C@H](Cc3ccc(-c4ccccc4)cc3)NC(=O)[C@H](C(C)C)NC2=O)c1 [Compound 1027] ({CH2CO}-[Dap]Y(Carboxymethyl)D[Phe(3-Me)]V[Bip][Cit][Orn][dL][Dab][Cha]VTCE[Aun]-OH; thioether N-14) | 17.1
5 | Cc1cccc(C[C@@H]2NC(=O)[C@H](CC(=O)O)NC(=O)[C@H](Cc3ccc(OCC(=O)O)cc3)NC(=O)[C@H](CN)NC(=O)CSC[C@@H](C(=O)N[C@@H](C)C(=O)NCCOCCOCC(=O)NCCCCCCCCCCC(=O)O)NC(=O)[C@H]([C@@H](C)O)NC(=O)[C@H](C(C)C)NC(=O)[C@H](CC3CCCCC3)NC(=O)[C@H](CCN)NC(=O)[C@@H](CC(C)C)NC(=O)[C@H](CCCN)NC(=O)[C@H](CCCNC(N)=O)NC(=O)[C@H](Cc3ccc(-c4ccccc4)cc3)NC(=O)[C@H](C(C)C)NC2=O)c1 [Compound 1029] ({CH2CO}-[Dap]Y(Carboxymethyl)D[Phe(3-Me)]V[Bip][Cit][Orn][dL][Dab][Cha]VTCA[AEEA][Aun]-OH; thioether N-14) | 7.4
6 | Cc1cccc(C[C@@H]2NC(=O)[C@H](CC(=O)O)NC(=O)[C@H](Cc3ccc(OCC(=O)O)cc3)NC(=O)[C@H](CN)NC(=O)CSC[C@@H](C(=O)NCCOCCOCC(=O)N[C@@H](CCC(=O)NCCCCCCCCCCC(=O)O)C(=O)O)NC(=O)[C@H]([C@@H](C)O)NC(=O)[C@H](C(C)C)NC(=O)[C@H](CC3CCCCC3)NC(=O)[C@H](CCN)NC(=O)[C@@H](CC(C)C)NC(=O)[C@H](CCCN)NC(=O)[C@H](CCCNC(N)=O)NC(=O)[C@H](Cc3ccc(-c4ccccc4)cc3)NC(=O)[C@H](C(C)C)NC2=O)c1 [Compound 1030] ({CH2CO}-[Dap]Y(Carboxymethyl)D[Phe(3-Me)]V[Bip][Cit][Orn][dL][Dab][Cha]VTC[AEEA][γGlu][Aun]-OH; thioether N-14) | 4.3
7 | Cc1cccc(C[C@@H]2NC(=O)[C@H](CC(=O)O)NC(=O)[C@H](Cc3ccc(OCC(=O)O)cc3)NC(=O)[C@H](CN)NC(=O)CSC[C@@H](C(=O)NCCOCCOCC(=O)N[C@@H](CC(=O)NCCCCCCCCCCC(=O)O)C(=O)O)NC(=O)[C@H]([C@@H](C)O)NC(=O)[C@H](C(C)C)NC(=O)[C@H](CC3CCCCC3)NC(=O)[C@H](CCN)NC(=O)[C@@H](CC(C)C)NC(=O)[C@H](CCCN)NC(=O)[C@H](CCCNC(N)=O)NC(=O)[C@H](Cc3ccc(-c4ccccc4)cc3)NC(=O)[C@H](C(C)C)NC2=O)c1 [Compound 1031] ({CH2CO}-[Dap]Y(Carboxymethyl)D[Phe(3-Me)]V[Bip][Cit][Orn][dL][Dab][Cha]VTC[AEEA][βAsp][Aun]-OH; thioether N-14) | 6.8
8 | Cc1cccc(C[C@@H]2NC(=O)[C@H](CC(=O)O)NC(=O)[C@H](Cc3ccc(OCC(=O)O)cc3)NC(=O)[C@H](CN)NC(=O)CSC[C@@H](C(=O)NCCOCCOCC(=O)N[C@@H](CC(=O)O)C(=O)NCCCCCCCCCCC(=O)O)NC(=O)[C@H]([C@@H](C)O)NC(=O)[C@H](C(C)C)NC(=O)[C@H](CC3CCCCC3)NC(=O)[C@H](CCN)NC(=O)[C@@H](CC(C)C)NC(=O)[C@H](CCCN)NC(=O)[C@H](CCCNC(N)=O)NC(=O)[C@H](Cc3ccc(-c4ccccc4)cc3)NC(=O)[C@H](C(C)C)NC2=O)c1 [Compound 1032] ({CH2CO}-[Dap]Y(Carboxymethyl)D[Phe(3-Me)]V[Bip][Cit][Orn][dL][Dab][Cha]VTC[AEEA]D[Aun]-OH; thioether N-14) | 6.1
9 | Cc1cccc(C[C@@H]2NC(=O)[C@H](CC(=O)O)NC(=O)[C@H](Cc3ccc(OCC(=O)O)cc3)NC(=O)[C@H](CN)NC(=O)CSC[C@@H](C(=O)NCCOCCOCC(=O)N[C@@H](CCC(=O)O)C(=O)NCCCCCCCCCCC(=O)O)NC(=O)[C@H]([C@@H](C)O)NC(=O)[C@H](C(C)C)NC(=O)[C@H](CC3CCCCC3)NC(=O)[C@H](CCN)NC(=O)[C@@H](CC(C)C)NC(=O)[C@H](CCCN)NC(=O)[C@H](CCCNC(N)=O)NC(=O)[C@H](Cc3ccc(-c4ccccc4)cc3)NC(=O)[C@H](C(C)C)NC2=O)c1 [Compound 1033] ({CH2CO}-[Dap]Y(Carboxymethyl)D[Phe(3-Me)]V[Bip][Cit][Orn][dL][Dab][Cha]VTC[AEEA]E[Aun]-OH; thioether N-14) | 8.7
10 | Cc1cccc(C[C@@H]2NC(=O)[C@H](CC(=O)O)NC(=O)[C@H](Cc3ccc(OCC(=O)O)cc3)NC(=O)[C@H](CN)NC(=O)CSC[C@@H](C(=O)N[C@@H](CCC(=O)NCCOCCOCC(=O)NCCCCCCCCCCC(=O)O)C(=O)O)NC(=O)[C@H]([C@@H](C)O)NC(=O)[C@H](C(C)C)NC(=O)[C@H](CC3CCCCC3)NC(=O)[C@H](CCN)NC(=O)[C@@H](CC(C)C)NC(=O)[C@H](CCCN)NC(=O)[C@H](CCCNC(N)=O)NC(=O)[C@H](Cc3ccc(-c4ccccc4)cc3)NC(=O)[C@H](C(C)C)NC2=O)c1 [Compound 1034] ({CH2CO}-[Dap]Y(Carboxymethyl)D[Phe(3-Me)]V[Bip][Cit][Orn][dL][Dab][Cha]VTC[γGlu][AEEA][Aun]-OH; thioether N-14) | 6.6
11 | Cc1cccc(C[C@@H]2NC(=O)[C@H](CC(=O)O)NC(=O)[C@H](Cc3ccc(OCC(=O)O)cc3)NC(=O)[C@H](CN)NC(=O)CSC[C@@H](C(=O)N[C@@H](CC(=O)NCCOCCOCC(=O)NCCCCCCCCCCC(=O)O)C(=O)O)NC(=O)[C@H]([C@@H](C)O)NC(=O)[C@H](C(C)C)NC(=O)[C@H](CC3CCCCC3)NC(=O)[C@H](CCN)NC(=O)[C@@H](CC(C)C)NC(=O)[C@H](CCCN)NC(=O)[C@H](CCCNC(N)=O)NC(=O)[C@H](Cc3ccc(-c4ccccc4)cc3)NC(=O)[C@H](C(C)C)NC2=O)c1 [Compound 1035] ({CH2CO}-[Dap]Y(Carboxymethyl)D[Phe(3-Me)]V[Bip][Cit][Orn][dL][Dab][Cha]VTC[βAsp][AEEA][Aun]-OH; thioether N-14) | 9
12 | Cc1cccc(C[C@@H]2NC(=O)[C@H](CC(=O)O)NC(=O)[C@H](Cc3ccc(OCC(=O)O)cc3)NC(=O)[C@H](CN)NC(=O)CSC[C@@H](C(=O)N[C@@H](CC(=O)O)C(=O)NCCOCCOCC(=O)NCCCCCCCCCCC(=O)O)NC(=O)[C@H]([C@@H](C)O)NC(=O)[C@H](C(C)C)NC(=O)[C@H](CC3CCCCC3)NC(=O)[C@H](CCN)NC(=O)[C@@H](CC(C)C)NC(=O)[C@H](CCCN)NC(=O)[C@H](CCCNC(N)=O)NC(=O)[C@H](Cc3ccc(-c4ccccc4)cc3)NC(=O)[C@H](C(C)C)NC2=O)c1 [Compound 1036] ({CH2CO}-[Dap]Y(Carboxymethyl)D[Phe(3-Me)]V[Bip][Cit][Orn][dL][Dab][Cha]VTCD[AEEA][Aun]-OH; thioether N-14) | 6.8
